This is an account of results in patent US20250186437A1, “CARBOLINE COMPOUNDS AND USE THEREOF” (PTC Therapeutics, Inc., priority 2021, published 2025).

For this test, the system named is MOLM-13 cells. Put plainly: MOLM-13 Cell Proliferation Assay (indicator of DHODH inhibition). The class given is cell-based. As to conditions: Homo sapiens, 72 Hours of culture, CellTiter-Glo, no uridine. As to the method: The following assay was conducted to measure proliferation of MOLM-13 cells in the presence of each compound studied. This assay was included as an indicator of DHODH inhibition, as growth of MOLM-13 cells is known to depend on synthesis of pyrimidines using the de novo pathway, which can be blocked by inhibition of DHODH. • 1. MOLM-13 cells were cultured in RPMI 1640 medium+10% Fetal Bovine Serum (FBS). Only low passage cells (<20) were used for the compound tests • 2. On day 1, Log-phase growing Molm-13 Cells were counted and diluted to 10^5 cells/mL in RPMI 1640 medium+10% FBS • 3. 100 μL of diluted MOLM-13 cells in 96 well white plates were seeded, for a final density of 10^4 cells/well. • 4. 0.5 μL of pre-diluted 200× compounds or DMSO control was added to each well. The final DMSO concentration was 0.5%. • 5. After 72 Hours of culture at 37° C., 5% CO2, the plates were taken out and cooled to RT, then 50 μL CellTiter-Glo® (Promega) was added, and the composition was mixed at RT for 10 minutes. • 6. The plates were then read by ViewLux (Speed-fast, Gain-High, Bining-1X, 5 seconds).
(In general: Cellular ATP, detected with luciferase, serves as a proxy for viable cell number.)

In general, IC50 refers to the concentration that gives 50% inhibition. Molecule `Cc1ccc([C@H]2c3[nH]c4ccc(Br)cc4c3CCN2c2nc(C(F)(F)F)nc(C(F)(F)F)n2)c(F)c1F` [Compound 523, (1S)-2-[4,6-bis(trifluoromethyl)-1,3,5-triazin-2-yl]-6-bromo-1-(2,3-difluoro-4-methylphenyl)-2,3,4,9-tetrahydro-1H-pyrido[3,4-b]indole] gave an IC50 of 0.6 nM.

For the molecule `Cc1ccnc(N2CCc3c([nH]c4cc(F)c(Cl)cc34)C2c2ccc(C)c(F)c2F)n1` (centres unmarked) [Compound 139, 6-chloro-1-(2,3-difluoro-4-methylphenyl)-7-fluoro-2-(4-methylpyrimidin-2-yl)-2,3,4,9-tetrahydro-1H-pyrido[3,4-b]indole], inhibition was half-maximal at 3.6 nM (IC50).

As to `Cc1ccc(C2c3[nH]c4ccc(F)cc4c3CCN2c2nc(C(F)(F)F)nc(C(F)(F)F)n2)c(F)c1F` (centres unmarked) [Compound 492, 2-[4,6-bis(trifluoromethyl)-1,3,5-triazin-2-yl]-1-(2,3-difluoro-4-methylphenyl)-6-fluoro-2,3,4,9-tetrahydro-1H-pyrido[3,4-b]indole], the midpoint of inhibition, the IC50, lay at 3.2 nM.

Turning to `FC(F)(F)c1cc(C(F)(F)F)nc(N2CCc3c([nH]c4ccc(-n5nccn5)cc34)[C@@H]2c2ccc(N3CCOCC3)nc2)n1` [Compound 485, (1S)-2-[4,6-bis(trifluoromethyl)pyrimidin-2-yl]-1-[6-(morpholin-4-yl)pyridin-3-yl]-6-(2H-1,2,3-triazol-2-yl)-2,3,4,9-tetrahydro-1H-pyrido[3,4-b]indole], the IC50 is 0.6 nM.

Turning to `Fc1cnc(N2CCc3c([nH]c4cc(F)c(Cl)cc34)C2c2ccc(F)c(F)c2)nc1` (centres unmarked) [Compound 37, 6-chloro-1-(3,4-difluorophenyl)-7-fluoro-2-(5-fluoropyrimidin-2-yl)-2,3,4,9-tetrahydro-1H-pyrido[3,4-b]indole], it took 89.6 nM to reach half-maximal inhibition (IC50).

Turning to `CCCCOc1nc(C)nc(N2CCc3c([nH]c4ccc(Cl)cc34)C2c2cnc(N3CCOCC3)nc2)n1` (centres unmarked) [Compound 318, 2-(4-butoxy-6-methyl-1,3,5-triazin-2-yl)-6-chloro-1-[2-(morpholin-4-yl)pyrimidin-5-yl]-2,3,4,9-tetrahydro-1H-pyrido[3,4-b]indole], inhibition was half-maximal at 4.3 nM (IC50).

`Oc1cc(Cl)ccc1C1c2[nH]c3ccc(Cl)cc3c2CCN1c1ncc(F)cn1` (centres unmarked) [Compound 221, 5-chloro-2-[6-chloro-2-(5-fluoropyrimidin-2-yl)-2,3,4,9-tetrahydro-1H-pyrido[3,4-b]indol-1-yl]phenol] showed an IC50 of 4.2 nM.

For the molecule `FC(F)(F)c1ccnc(N2CCc3c([nH]c4ccc(Cl)cc34)C2c2ccc(N3C[C@H]4C[C@@H]3CO4)nc2)n1` (stereo partly drawn) [Compound 373, 6-chloro-1-{6-[(1R,4R)-2-oxa-5-azabicyclo[2.2.1]heptan-5-yl]pyridin-3-yl}-2-[4-(trifluoromethyl)pyrimidin-2-yl]-2,3,4,9-tetrahydro-1H-pyrido[3,4-b]indole], the IC50 was found to be 4.6 nM.

In turn, `Cc1ccc([C@H]2c3[nH]c4ccc(Cl)cc4c3CCN2c2nc(N3CCOCC3)nc(C(F)(F)F)n2)c(F)c1F` [Compound 436, (1S)-6-chloro-1-(2,3-difluoro-4-methylphenyl)-2-[4-(morpholin-4-yl)-6-(trifluoromethyl)-1,3,5-triazin-2-yl]-2,3,4,9-tetrahydro-1H-pyrido[3,4-b]indole] gave an IC50 of 0.6 nM.

Take `Cc1cc(C)nc(N2CCc3c([nH]c4cc(F)c(Cl)cc34)C2c2ccc(F)cc2)n1` (centres unmarked) [Compound 19, 6-chloro-2-(4,6-dimethylpyrimidin-2-yl)-7-fluoro-1-(4-fluorophenyl)-2,3,4,9-tetrahydro-1H-pyrido[3,4-b]indole]: the IC50 was determined as 26.3 nM.

`Oc1cc(C2c3[nH]c4ccc(Cl)cc4c3CCN2c2nccc(C(F)(F)F)n2)ccc1Cl` (centres unmarked) [Compound 218, 2-chloro-5-{6-chloro-2-[4-(trifluoromethyl)pyrimidin-2-yl]-2,3,4,9-tetrahydro-1H-pyrido[3,4-b]indol-1-yl}phenol] gave a half-inhibitory concentration (IC50) of 6.1 nM.

Take `CN1CCN(c2ccc([C@H]3c4[nH]c5ccc(Cl)cc5c4CCN3c3nccc(C(F)(F)F)n3)cn2)CC1` [Compound 480, (1S)-6-chloro-1-[6-(4-methylpiperazin-1-yl)pyridin-3-yl]-2-[4-(trifluoromethyl)pyrimidin-2-yl]-2,3,4,9-tetrahydro-1H-pyrido[3,4-b]indole]: the midpoint of inhibition, the IC50, lay at 3.2 nM.

As for `Cc1ccc([C@H]2c3[nH]c4ccc(Cl)cc4c3CCN2c2nc(N3CCOCC3)nc(C(F)(F)F)n2)cc1` [Compound 442, (1S)-6-chloro-1-(4-methylphenyl)-2-[4-(morpholin-4-yl)-6-(trifluoromethyl)-1,3,5-triazin-2-yl]-2,3,4,9-tetrahydro-1H-pyrido[3,4-b]indole], the 50% inhibitory concentration (IC50) came to 3.4 nM.

For `Cc1ccnc(N2CCc3c([nH]c4cc(F)c(Cl)cc34)C2c2ccc(C#N)cc2)n1` (centres unmarked) [Compound 61, 4-[6-chloro-7-fluoro-2-(4-methylpyrimidin-2-yl)-2,3,4,9-tetrahydro-1H-pyrido[3,4-b]indol-1-yl]benzonitrile], half-maximal inhibition (IC50) required 35.2 nM.

With `Cc1ccc(C2c3[nH]c4cc(F)c(Cl)cc4c3CCN2c2nc(C)cc(C(F)(F)F)n2)cc1` (centres unmarked) [Compound 96, 6-chloro-7-fluoro-1-(4-methylphenyl)-2-[4-methyl-6-(trifluoromethyl)pyrimidin-2-yl]-2,3,4,9-tetrahydro-1H-pyrido[3,4-b]indole], 1.9 nM corresponded to half-maximal inhibition (IC50).

`Cc1cnc(N2CCc3c([nH]c4cc(F)c(Cl)cc34)C2c2ccc(C)c(F)c2F)nc1` (centres unmarked) [Compound 136, 6-chloro-1-(2,3-difluoro-4-methylphenyl)-7-fluoro-2-(5-methylpyrimidin-2-yl)-2,3,4,9-tetrahydro-1H-pyrido[3,4-b]indole] registered an IC50 of 7.5 nM.

Molecule `Cc1ccc(C2c3[nH]c4cc(F)c(Cl)cc4c3CCN2c2ncc(F)c(C#N)n2)cc1` (centres unmarked) [Compound 175, 2-[6-chloro-7-fluoro-1-(4-methylphenyl)-1,3,4,9-tetrahydro-2H-pyrido[3,4-b]indol-2-yl]-5-fluoropyrimidine-4-carbonitrile] yielded an IC50 of 4.7 nM.

As for `Cc1ccc(C2c3[nH]c4ccc(F)cc4c3CCN2c2nc(C(F)(F)F)cc(C(F)(F)F)n2)c(F)c1F` (centres unmarked) [Compound 490, 2-[4,6-bis(trifluoromethyl)pyrimidin-2-yl]-1-(2,3-difluoro-4-methylphenyl)-6-fluoro-2,3,4,9-tetrahydro-1H-pyrido[3,4-b]indole], it took 2.8 nM to reach half-maximal inhibition (IC50).

The molecule `FC(F)(F)c1ccnc(N2CCc3c([nH]c4ccc(-n5cccc5)cc34)C2c2cnc(N3CCOCC3)nc2)n1` (centres unmarked) [Compound 314, 1-[2-(morpholin-4-yl)pyrimidin-5-yl]-6-(1H-pyrrol-1-yl)-2-[4-(trifluoromethyl)pyrimidin-2-yl]-2,3,4,9-tetrahydro-1H-pyrido[3,4-b]indole] yielded an IC50 of 22.2 nM.

`FC(F)(F)c1ncnc(N2CCc3c([nH]c4ccc(-n5nccn5)cc34)[C@@H]2c2ccc(N3CCOCC3)nc2)n1` [Compound 498, (1S)-1-[6-(morpholin-4-yl)pyridin-3-yl]-6-(2H-1,2,3-triazol-2-yl)-2-[4-(trifluoromethyl)-1,3,5-triazin-2-yl]-2,3,4,9-tetrahydro-1H-pyrido[3,4-b]indole] gave an IC50 of 0.7 nM.
